US20250154173A1 (Merck Sharp & Dohme LLC, priority 2023, published 2025)

What follows are molecules tested against T1, GST-RIPK1 (recombinant GST-RIPK1 kinase domain (residues 1-327)) (Homo sapiens, UniProt Q13546) (assay: RIPK1-ADP-Glo Enzymatic Assay). Settings: ten-point titration, top compound concentration of 100000 nM; 25 nM GST-RIPK1, 300 μM ATP, 3 μM dephosphorylated-MBP; 30 min pre-incubation, 150 min reaction.
T1 construct: recombinant GST-RIPK1 kinase domain (residues 1-327) enzyme produced from baculovirus-transfected Sf21 cells; host or cells: baculovirus-transfected Sf21 insect cells
T1 sequence (Q13546 1-327): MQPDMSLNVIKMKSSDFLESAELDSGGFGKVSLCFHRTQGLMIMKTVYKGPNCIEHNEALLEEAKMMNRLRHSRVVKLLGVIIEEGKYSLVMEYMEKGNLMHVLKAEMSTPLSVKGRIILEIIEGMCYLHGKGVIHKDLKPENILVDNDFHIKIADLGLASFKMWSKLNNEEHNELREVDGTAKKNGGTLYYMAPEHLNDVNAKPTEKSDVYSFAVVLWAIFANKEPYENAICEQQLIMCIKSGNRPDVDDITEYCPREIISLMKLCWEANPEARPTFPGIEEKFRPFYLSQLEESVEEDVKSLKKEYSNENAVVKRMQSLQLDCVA
Type: biochemical
How it was run: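 GST-RIPK1 kinase domain (residues 1-327, Sf21-expressed), 25 nM, preincubated 30 min with compound, then reacted 150 min with 300 μM ATP and 3 μM dephosphorylated MBP in pH 7.3 Hepes buffer, 1% DMSO. ADP measured by ADP-Glo luminescence; EC50 from ten-point titration (top 100000 nM), four-parameter fit.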

Compound | EC50
O=C1N2C(CC[C@H]2c2cnccn2)OC12CC(OCc1cnc3c(c1)CCCC3)C2 (stereo partly drawn) [Example 18.42, (5′S)-5′-(pyrazin-2-yl)-3-[(5,6,7,8-tetrahydroquinolin-3-yl)methoxy]tetrahydro-3′H-spiro[cyclobutane-1,2′-pyrrolo[2,1-b][1,3]oxazol]-3′-one] | 110 nM
O=C1N2C(CC[C@H]2c2cnccn2)OC12CC(OCc1cc3ncccc3s1)C2 (stereo partly drawn) [Example 18.43, (5′S)-5′-(pyrazin-2-yl)-3-[(thieno[3,2-b]pyridin-2-yl)methoxy]tetrahydro-3′H-spiro[cyclobutane-1,2′-pyrrolo[2,1-b][1,3]oxazol]-3′-one] | 6 nM
N#Cc1ccncc1COC1CC2(C1)OC1CC[C@@H](c3cnccn3)N1C2=O (stereo partly drawn) [Example 18.45, 3-({[(5′S)-3′-oxo-5′-(pyrazin-2-yl)tetrahydro-3′H-spiro[cyclobutane-1,2′-pyrrolo[2,1-b][1,3]oxazol]-3-yl]oxy}methyl)pyridine-4-carbonitrile] | 159 nM
O=C1N2C(CC[C@H]2c2cnccn2)OC12CC(OCc1ccc3nc(C(F)(F)F)sc3c1)C2 (stereo partly drawn) [Example 18.48] | 31 nM
N#CCc1ncc(COC2CC3(C2)OC2CC[C@@H](c4cnccn4)N2C3=O)cc1Cl (stereo partly drawn) [Example 18.49, [3-chloro-5-({[(5′S)-3′-oxo-5′-(pyrazin-2-yl)tetrahydro-3′H-spiro[cyclobutane-1,2′-pyrrolo[2,1-b][1,3]oxazol]-3-yl]oxy}methyl)pyridin-2-yl]acetonitrile] | 59 nM
N#Cc1cccc(F)c1COC1CC2(C1)OC1CC[C@@H](c3cnccn3)N1C2=O (stereo partly drawn) [Example 18.51, 3-fluoro-2-({[(5′S)-3′-oxo-5′-(pyrazin-2-yl)tetrahydro-3′H-spiro[cyclobutane-1,2′-pyrrolo[2,1-b][1,3]oxazol]-3-yl]oxy}methyl)benzonitrile] | 210 nM
O=C1N2C(CC[C@H]2c2cnccn2)OC12CC(OCc1cnn(-c3ccncc3)c1)C2 (stereo partly drawn) [Example 18.52, (5′S)-5′-(pyrazin-2-yl)-3-{[1-(pyridin-4-yl)-1H-pyrazol-4-yl]methoxy}tetrahydro-3′H-spiro[cyclobutane-1,2′-pyrrolo[2,1-b][1,3]oxazol]-3′-one] | 96 nM
O=C1N2C(CC[C@H]2c2cnccn2)OC12CC(OCc1ccccc1-n1cccn1)C2 (stereo partly drawn) [Example 18.53, (5′S)-5′-(pyrazin-2-yl)-3-{[2-(1H-pyrazol-1-yl)phenyl]methoxy}tetrahydro-3′H-spiro[cyclobutane-1,2′-pyrrolo[2,1-b][1,3]oxazol]-3′-one] | 117 nM
O=C1N2C(CC[C@H]2c2cnccn2)OC12CC(OCc1ccc3nc(C(F)(F)F)cn3c1)C2 (stereo partly drawn) [Example 18.54, (5′S)-5′-(pyrazin-2-yl)-3-{[2-(trifluoromethyl)imidazo[1,2-a]pyridin-6-yl]methoxy}tetrahydro-3′H-spiro[cyclobutane-1,2′-pyrrolo[2,1-b][1,3]oxazol]-3′-one] | 159 nM
N#Cc1ccoc1COC1CC2(C1)OC1CC[C@@H](c3cnccn3)N1C2=O (stereo partly drawn) [Example 18.55, 2-({[(5′S)-3′-oxo-5′-(pyrazin-2-yl)tetrahydro-3′H-spiro[cyclobutane-1,2′-pyrrolo[2,1-b][1,3]oxazol]-3-yl]oxy}methyl)furan-3-carbonitrile] | 126 nM
O=C1N2C(CC[C@H]2c2cnccn2)OC12CC(OCc1ccc(OC3CCOCC3)nc1)C2 (stereo partly drawn) [Example 18.57, (5′S)-3-({6-[(oxan-4-yl)oxy]pyridin-3-yl}methoxy)-5′-(pyrazin-2-yl)tetrahydro-3′H-spiro[cyclobutane-1,2′-pyrrolo[2,1-b][1,3]oxazol]-3′-one] | 109 nM
O=C1N2C(CC[C@H]2c2cnccn2)OC12CC(OCc1nnc(Cc3ccccc3)s1)C2 (stereo partly drawn) [Example 18.64, (5′S)-3-[(5-benzyl-1,3,4-thiadiazol-2-yl)methoxy]-5′-(pyrazin-2-yl)tetrahydro-3′H-spiro[cyclobutane-1,2′-pyrrolo[2,1-b][1,3]oxazol]-3′-one] | 122 nM
N#Cc1ccc(COC2CC3(C2)OC2CC[C@@H](c4cnccn4)N2C3=O)c2cccnc12 (stereo partly drawn) [Example 18.65, 5-({[(5′S)-3′-oxo-5′-(pyrazin-2-yl)tetrahydro-3′H-spiro[cyclobutane-1,2′-pyrrolo[2,1-b][1,3]oxazol]-3-yl]oxy}methyl)quinoline-8-carbonitrile] | 32 nM
CCC(C)Oc1cccc(COC2CC3(C2)O[C@@H]2CC[C@@H](c4cnccn4)N2C3=O)n1 (stereo partly drawn) [Example 18.66, (5′S,7a′R)-3-({6-[(butan-2-yl)oxy]pyridin-2-yl}methoxy)-5′-(pyrazin-2-yl)tetrahydro-3′H-spiro[cyclobutane-1,2′-pyrrolo[2,1-b][1,3]oxazol]-3′-one] | 141 nM
O=C1N2C(CC[C@H]2c2cnccn2)OC12CC(OCc1csc3ncccc13)C2 (stereo partly drawn) [Example 18.68, (5′S)-5′-(pyrazin-2-yl)-3-[(thieno[2,3-b]pyridin-3-yl)methoxy]tetrahydro-3′H-spiro[cyclobutane-1,2′-pyrrolo[2,1-b][1,3]oxazol]-3′-one] | 43 nM

Continued, values first:

EC50 | Compound
241 nM | O=C1N2C(CC[C@H]2c2cnccn2)OC12CC(OCc1ccc(OCCF)nn1)C2 (stereo partly drawn) [Example 18.44, (5′S)-3-{[6-(2-fluoroethoxy)pyridazin-3-yl]methoxy}-5′-(pyrazin-2-yl)tetrahydro-3′H-spiro[cyclobutane-1,2′-pyrrolo[2,1-b][1,3]oxazol]-3′-one]
128 nM | O=C1N2C(CC[C@H]2c2cnccn2)OC12CC(OCc1cnc3nccn3c1)C2 (stereo partly drawn) [Example 18.46, (5′S)-3-[(imidazo[1,2-a]pyrimidin-6-yl)methoxy]-5′-(pyrazin-2-yl)tetrahydro-3′H-spiro[cyclobutane-1,2′-pyrrolo[2,1-b][1,3]oxazol]-3′-one]
60 nM | N#CCCc1ccc(COC2CC3(C2)OC2CC[C@@H](c4cnccn4)N2C3=O)cc1 (stereo partly drawn) [Example 18.47, 3-[4-({[(5′S)-3′-oxo-5′-(pyrazin-2-yl)tetrahydro-3′H-spiro[cyclobutane-1,2′-pyrrolo[2,1-b][1,3]oxazol]-3-yl]oxy}methyl)phenyl]propanenitrile]
65 nM | COCCOc1ccc(COC2CC3(C2)OC2CC[C@@H](c4cnccn4)N2C3=O)cc1 (stereo partly drawn) [Example 18.50, (5′S)-3-{[4-(2-methoxyethoxy)phenyl]methoxy}-5′-(pyrazin-2-yl)tetrahydro-3′H-spiro[cyclobutane-1,2′-pyrrolo[2,1-b][1,3]oxazol]-3′-one]
11 nM | CCc1nnc(-c2ccc(COC3CC4(C3)OC3CC[C@@H](c5cnccn5)N3C4=O)cc2)o1 (stereo partly drawn) [Example 18.56, (5′S)-3-{[4-(5-ethyl-1,3,4-oxadiazol-2-yl)phenyl]methoxy}-5′-(pyrazin-2-yl)tetrahydro-3′H-spiro[cyclobutane-1,2′-pyrrolo[2,1-b][1,3]oxazol]-3′-one]
40 nM | O=C1N2[C@@H](CC[C@H]2c2cnccn2)OC12CC(OCc1ccc(-c3nnco3)cc1)C2 (stereo partly drawn) [Example 18.58, (5′S, 7a′R)-3-{[4-(1,3,4-oxadiazol-2-yl)phenyl]methoxy}-5′-(pyrazin-2-yl)tetrahydro-3′H-spiro[cyclobutane-1,2′-pyrrolo[2,1-b][1,3]oxazol]-3′-one]
12 nM | O=C1N2[C@@H](CC[C@H]2c2cnccn2)O[C@]12C[C@@H](OCc1ccc3oncc3c1)C2 [Example 18.59, (5′S)-3-[(1,2-benzoxazol-5-yl)methoxy]-5′-(pyrazin-2-yl)tetrahydro-3′H-spiro[cyclobutane-1,2′-pyrrolo[2,1-b][1,3]oxazol]-3′-one]
91 nM | O=C1N2[C@@H](CC[C@H]2c2cnccn2)OC12CC(OCc1ccnc3ccnn13)C2 (stereo partly drawn) [Example 18.60, (5′S)-5′-(pyrazin-2-yl)-3-[(pyrazolo[1,5-a]pyrimidin-7-yl)methoxy]tetrahydro-3′H-spiro[cyclobutane-1,2′-pyrrolo[2,1-b][1,3]oxazol]-3′-one]
37 nM | O=C1N2C(CC[C@H]2c2cnccn2)OC12CC(OCc1ccc3scnc3c1)C2 (stereo partly drawn) [Example 18.61, (5′S)-3-[(1,3-benzothiazol-5-yl)methoxy]-5′-(pyrazin-2-yl)tetrahydro-3′H-spiro[cyclobutane-1,2′-pyrrolo[2,1-b][1,3]oxazol]-3′-one]
47 nM | N#CCc1cccc(COC2CC3(C2)OC2CC[C@@H](c4cnccn4)N2C3=O)c1 (stereo partly drawn) [Example 18.62, [3-({[(5′S)-3′-oxo-5′-(pyrazin-2 yl)tetrahydro-3′H-spiro[cyclobutane-1,2′-pyrrolo[2,1-b][1,3]oxazol]-3-yl]oxy}methyl)phenyl]acetonitrile]
354 nM | O=C1N2C(CC[C@H]2c2cnccn2)OC12CC(OCc1ccc(C(F)F)cn1)C2 (stereo partly drawn) [Example 18.63, (5′S)-3-{[5-(difluoromethyl)pyridin-2-yl]methoxy}-5′-(pyrazin-2-yl)tetrahydro-3′H-spiro[cyclobutane-1,2′-pyrrolo[2,1-b][1,3]oxazol]-3′-one]
88 nM | CS(=O)(=O)c1ccc(COC2CC3(C2)OC2CC[C@@H](c4cnccn4)N2C3=O)cc1 (stereo partly drawn) [Example 18.67, (5′S)-3-{[4-(methylsulfonyl)phenyl]methoxy}-5′-(pyrazin-2-yl)tetrahydro-3′H-spiro[cyclobutane-1,2′-pyrrolo[2,1-b][1,3]oxazol]-3′-one]
